Measured values: patent US8883841B2, “Oncogenic ras-specific cytotoxic compound and methods of use thereof” (The Board of Regents of the University of Texas System, priority 2005, dated 2014)
Read-outs that look alike come from different tables or passages of the source.

Legend:
Capanc-1 = experiment: Cell viability, Capanc-1 pancreatic cancer cells; format: cell-based, human; details: Homo sapiens, Pancreatic cancer cell; capanc1, Pancrease; read-out: IC50 (−LogM) (converted)
Heb44 = experiment: Cell viability, Heb44 kidney cells; format: cell-based
H1299 cells = experiment: Cell viability, H1299 lung cancer cells; format: cell-based, human; details: Homo sapiens, NCI-H1299; h1299, Lung; read-out: IC50 (−LogM) (converted)
miapac = experiment: Cell viability, miapac pancreatic cancer cells; format: cell-based, human; details: Homo sapiens, Pancreatic cancer cell; miapac, Pancrease; read-out: IC50 (−LogM) (converted)
MCF7 = experiment: NCI in-vitro testing, MCF7 (Breast Cancer)
CT116P53 = experiment: Cell viability, CT116P53 colon cancer cells; format: cell-based, human; details: Homo sapiens; CT116P53, Colon; read-out: IC50 (−LogM) (converted)
SK-MEL-5 = experiment: NCI in-vitro testing, SK-MEL-5 (Melanoma)
OVCAR-5 = experiment: NCI in-vitro testing, OVCAR-5 (Ovarian Cancer)
Ovcar3 = experiment: Cell viability, Ovcar3 ovary cancer cells; format: cell-based; details: Homo sapiens, OVCAR-3
HCT-116 = experiment: NCI in-vitro testing, HCT-116 (Colon Cancer)
DLD1 = experiment: Cell viability, DLD1 colon cancer cells; format: cell-based, human; details: Homo sapiens, DLD-1; DLD1, Colon; read-out: IC50 (−LogM) (converted)
Hct116 = experiment: Cell viability, Hct116 colon cancer cells; format: cell-based, human; details: Homo sapiens, HCT-116; Hct116, Colon; read-out: IC50 (−LogM) (converted)
H2009 = experiment: Cell viability, H2009 lung cancer cells; format: cell-based, human; details: Homo sapiens, NCI-H2009; H2009, Lung; read-out: IC50 (−LogM) (converted)
H1395 = experiment: Cell viability, H1395 lung cancer cells; format: cell-based, human; details: Homo sapiens, NCI-H1395; H1395, Lung; read-out: IC50 (−LogM) (converted)
H226B cells = experiment: Cell viability, H226B lung cancer cells; format: cell-based, human; details: Homo sapiens, H226B, Lung, read-out: IC50 (−LogM) (converted)
A549 cells = experiment: Cell viability, A549 lung cancer cells; format: cell-based, human; details: Homo sapiens; A549, Lung; read-out: IC50 (−LogM) (converted)
H1933 = experiment: Cell viability, H1933 lung cancer cells; format: cell-based, human; details: Homo sapiens; H1933, Lung; read-out: IC50 (−LogM) (converted)
HKE3 = experiment: Cell viability, HKE3 colon cancer cells; format: cell-based, human; details: Homo sapiens, HKE3, Colon, read-out: IC50 (−LogM) (converted)
MALME-3M = experiment: NCI in-vitro testing, MALME-3M (Melanoma)
HCT-15 = experiment: NCI in-vitro testing, HCT-15 (Colon Cancer)
AsPC-1 = experiment: Cell viability, AsPC-1 pancreatic cancer cells; format: cell-based, human; details: Homo sapiens; ASPC1, Pancrease; read-out: IC50 (−LogM) (converted)
H23 = experiment: Cell viability, H23 lung cancer cells; format: cell-based, human; details: Homo sapiens, NCI-H23; H23, Lung; read-out: IC50 (−LogM) (converted)
KM12 = experiment: NCI in-vitro testing, KM12 (Colon Cancer)
H2122 = experiment: Cell viability, H2122 lung cancer cells; format: cell-based, human; details: Homo sapiens, NCI-H2122; H2122, Lung; read-out: IC50 (−LogM) (converted)
A549CK8 = experiment: Cell viability, A549CK8 lung cancer cells; format: cell-based, human; details: Homo sapiens; A549CK8, Lung; read-out: IC50 (−LogM) (converted)
MDA-MB-231/ATCC = experiment: NCI in-vitro testing, MDA-MB-231/ATCC (Breast Cancer)
Heb46 = experiment: Cell viability, Heb46 kidney cells; format: cell-based

OCc1cn(Cc2ccc(Cl)cc2)c2ccccc12 [Oncrasin K060, 1H-Indole-3-methanol, 1-[(4-chlorophenyl)methyl]-]
IC50 (Capanc-1): 10 µM | IC50 (Heb44): 0.01 µM | IC50 (H1299 cells): 3.16 µM | IC50 (miapac): < 31.6 µM | GI50 (MCF7; Homo sapiens, MCF7): 0.0573 µM | CC50 (MCF7; Homo sapiens, MCF7, read-out: LC50): > 100 µM | GI50 (MCF7; Homo sapiens, MCF7, read-out: Log10 GI50 (converted)): 0.0676 µM | TGI (MCF7; MCF7): 2.75E−5 Molar | Percent Growth (MCF7; MCF7, Log10 Concentration −4.0 Molar): −10% | Percent Growth (MCF7; MCF7, Log10 Concentration −5.0 Molar): 8% | Percent Growth (MCF7; MCF7, Log10 Concentration −6.0 Molar): 10% | Percent Growth (MCF7; MCF7, Log10 Concentration −7.0 Molar): 45% | Percent Growth (MCF7; MCF7, Log10 Concentration −8.0 Molar): 75% | IC50 (CT116P53): < 31.6 µM | GI50 (SK-MEL-5; Homo sapiens, SK-MEL-5): 4.97 µM | CC50 (SK-MEL-5; Homo sapiens, SK-MEL-5, read-out: LC50): 45.5 µM | GI50 (SK-MEL-5; Homo sapiens, SK-MEL-5, read-out: Log10 GI50 (converted)): 5.01 µM | TGI (SK-MEL-5; SK-MEL-5): 1.95E−5 Molar | Percent Growth (SK-MEL-5; SK-MEL-5, Log10 Concentration −4.0 Molar): −97% | Percent Growth (SK-MEL-5; SK-MEL-5, Log10 Concentration −5.0 Molar): 40% | Percent Growth (SK-MEL-5; SK-MEL-5, Log10 Concentration −6.0 Molar): 74% | Percent Growth (SK-MEL-5; SK-MEL-5, Log10 Concentration −7.0 Molar): 92% | Percent Growth (SK-MEL-5; SK-MEL-5, Log10 Concentration −8.0 Molar): 95% | GI50 (OVCAR-5; Homo sapiens, OVCAR-5): < 0.01 µM | CC50 (OVCAR-5; Homo sapiens, OVCAR-5, read-out: LC50): > 100 µM | GI50 (OVCAR-5; Homo sapiens, OVCAR-5, read-out: Log10 GI50 (converted)): < 0.01 µM | TGI (OVCAR-5; OVCAR-5): 3.72E−7 Molar | Percent Growth (OVCAR-5; OVCAR-5, Log10 Concentration −4.0 Molar): −50% | Percent Growth (OVCAR-5; OVCAR-5, Log10 Concentration −5.0 Molar): −23% | Percent Growth (OVCAR-5; OVCAR-5, Log10 Concentration −6.0 Molar): −7% | Percent Growth (OVCAR-5; OVCAR-5, Log10 Concentration −7.0 Molar): 10% | Percent Growth (OVCAR-5; OVCAR-5, Log10 Concentration −8.0 Molar): 43% | IC50 (Ovcar3): 0.1 µM | TGI (HCT-116; HCT-116): 1.06E−5 Molar | Percent Growth (HCT-116; HCT-116, Log10 Concentration −4.0 Molar): −64% | Percent Growth (HCT-116; HCT-116, Log10 Concentration −5.0 Molar): 2% | Percent Growth (HCT-116; HCT-116, Log10 Concentration −6.0 Molar): 10% | Percent Growth (HCT-116; HCT-116, Log10 Concentration −7.0 Molar): 30% | Percent Growth (HCT-116; HCT-116, Log10 Concentration −8.0 Molar): 68% | GI50 (HCT-116; Homo sapiens, HCT-116): 0.0204 µM | CC50 (HCT-116; Homo sapiens, HCT-116, read-out: LC50): 6.06 µM | GI50 (HCT-116; Homo sapiens, HCT-116, read-out: Log10 GI50 (converted)): 0.0295 µM | IC50 (DLD1): < 31.6 µM | IC50 (Hct116): 0.1 µM | IC50 (H2009): 15.8 µM | IC50 (H1395): 20 µM | IC50 (H226B cells; first H226B line): 0.00251 µM | IC50 (H226B cells; second H226B line): 0.00316 µM | IC50 (A549 cells): 2 µM | IC50 (H1933): 10 µM | IC50 (HKE3; first HKE3 line): 0.0251 µM | IC50 (HKE3; second HKE3 line): < 0.00316 µM | GI50 (MALME-3M; Homo sapiens, Malme-3M): 51.7 µM | CC50 (MALME-3M; Homo sapiens, Malme-3M, read-out: LC50): 82 µM | GI50 (MALME-3M; Homo sapiens, Malme-3M, read-out: Log10 GI50 (converted)): 5.13 µM | TGI (MALME-3M; MALME-3M): 2.37E−5 Molar | Percent Growth (MALME-3M; MALME-3M, Log10 Concentration −4.0 Molar): −58% | Percent Growth (MALME-3M; MALME-3M, Log10 Concentration −5.0 Molar): 35% | Percent Growth (MALME-3M; MALME-3M, Log10 Concentration −6.0 Molar): 88% | Percent Growth (MALME-3M; MALME-3M, Log10 Concentration −7.0 Molar): 114% | Percent Growth (MALME-3M; MALME-3M, Log10 Concentration −8.0 Molar): 105% | TGI (HCT-15; HCT-15): 2.58E−5 Molar | Percent Growth (HCT-15; HCT-15, Log10 Concentration −4.0 Molar): −31% | Percent Growth (HCT-15; HCT-15, Log10 Concentration −5.0 Molar): 21% | Percent Growth (HCT-15; HCT-15, Log10 Concentration −6.0 Molar): 69% | Percent Growth (HCT-15; HCT-15, Log10 Concentration −7.0 Molar): 90% | Percent Growth (HCT-15; HCT-15, Log10 Concentration −8.0 Molar): 99% | GI50 (HCT-15; Homo sapiens, HCT-15): 2.52 µM | CC50 (HCT-15; Homo sapiens, HCT-15, read-out: LC50): > 100 µM | GI50 (HCT-15; Homo sapiens, HCT-15, read-out: Log10 GI50 (converted)): 2.51 µM | IC50 (AsPC-1): 2 µM | IC50 (H23): 15.8 µM | GI50 (KM12; Homo sapiens, KM12): 18.3 µM | CC50 (KM12; Homo sapiens, KM12, read-out: LC50): 9.44 µM | GI50 (KM12; Homo sapiens, KM12, read-out: Log10 GI50 (converted)): 18.2 µM | TGI (KM12; KM12): 1.15E−6 Molar | Percent Growth (KM12; KM12, Log10 Concentration −4.0 Molar): −64% | Percent Growth (KM12; KM12, Log10 Concentration −5.0 Molar): 87% | Percent Growth (KM12; KM12, Log10 Concentration −6.0 Molar): 102% | Percent Growth (KM12; KM12, Log10 Concentration −7.0 Molar): 113% | Percent Growth (KM12; KM12, Log10 Concentration −8.0 Molar): 108% | IC50 (H2122): 1 µM | IC50 (A549CK8): 1 µM | GI50 (MDA-MB-231/ATCC; Homo sapiens, MDA-MB-231): 11 µM | CC50 (MDA-MB-231/ATCC; Homo sapiens, MDA-MB-231, read-out: LC50): > 100 µM | GI50 (MDA-MB-231/ATCC; Homo sapiens, MDA-MB-231, read-out: Log10 GI50 (converted)): 11 µM | TGI (MDA-MB-231/ATCC; MDA-MB-231/ATCC): 4.23E−5 Molar | Percent Growth (MDA-MB-231/ATCC; MDA-MB-231/ATCC, Log10 Concentration −4.0 Molar): −32% | Percent Growth (MDA-MB-231/ATCC; MDA-MB-231/ATCC, Log10 Concentration −5.0 Molar): 53% | Percent Growth (MDA-MB-231/ATCC; MDA-MB-231/ATCC, Log10 Concentration −6.0 Molar): 109% | Percent Growth (MDA-MB-231/ATCC; MDA-MB-231/ATCC, Log10 Concentration −7.0 Molar): 120% | Percent Growth (MDA-MB-231/ATCC; MDA-MB-231/ATCC, Log10 Concentration −8.0 Molar): 105% | IC50 (Heb46): 0.2 µM
